Reference: PMC9516381 (Biochemistry and Biophysics Reports, 2022)
Read-outs that look alike come from different tables or passages of the source.

Experiments:
h2E2 anti-cocaine mAb [1] = experiment: Isothermal titration calorimetry; assay type: binding; conditions: ITC, PBS, 20°C, mean ± SD of 4 experiments; for ΔG: calculated as ΔG = ΔH – TΔS; for Kd: reciprocal of fitted K
h2E2 anti-cocaine mAb [2] = conditions: intrinsic fluorescence quenching, 20 °C, TBS buffer; cited from earlier work
h2E2 Fc fragment = h2E2 Fc fragment (Homo sapiens, UniProt P01857); experiment: ITC of ligand binding to h2E2 Fc fragment; conditions: PBS pH 7.4, 20°C
Sequence of h2E2 Fc fragment (P01857 1-330 isoform P01857-1): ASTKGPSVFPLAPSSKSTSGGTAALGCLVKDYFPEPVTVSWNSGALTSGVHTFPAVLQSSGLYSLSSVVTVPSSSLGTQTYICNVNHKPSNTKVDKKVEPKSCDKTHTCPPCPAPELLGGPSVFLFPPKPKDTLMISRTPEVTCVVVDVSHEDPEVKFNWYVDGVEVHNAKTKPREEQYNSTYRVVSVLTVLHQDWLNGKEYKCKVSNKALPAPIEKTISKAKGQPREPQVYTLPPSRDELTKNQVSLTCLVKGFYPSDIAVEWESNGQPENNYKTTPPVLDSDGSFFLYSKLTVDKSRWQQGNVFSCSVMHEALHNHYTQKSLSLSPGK

mAb08 anti-cocaine mAb = conditions: ITC; cited from earlier work

Row | Structure (SMILES) | ΔG (h2E2 anti-cocaine mAb [1]) | K (association) (h2E2 anti-cocaine mAb [1]) | ΔH (h2E2 anti-cocaine mAb [1]) | ΔS (h2E2 anti-cocaine mAb [1]) | Kd (h2E2 anti-cocaine mAb [1]) | Kd (h2E2 anti-cocaine mAb [2]) | binding to the Fc fragment (h2E2 Fc fragment) | ΔH (h2E2 anti-cocaine mAb [1]; listed as cocaine) | Kd (h2E2 anti-cocaine mAb [1]; listed as cocaine) | Kd (mAb08 anti-cocaine mAb) | ΔH (h2E2 anti-cocaine mAb [1]; listed as benzoylecgonine)
1 | COC(=O)[C@H]1[C@@H](OC(=O)c2ccccc2)C[C@@H]2CC[C@H]1N2 [Norcocaine, norcocaine] | -7.85 ± 0.027 kcal/mol | 704500 ± 36098 M⁻¹ | -3.064 ± 0.15 kcal/mol | 16.3 ± 0.58 cal/mol/deg | 1420 ± 72 nM | – | – | – | – | – | –
2 | CCOC(=O)[C@@H]1C2CCC(C[C@@H]1OC(=O)c1ccccc1)N2C (stereo partly drawn) [Cocaethylene, cocaethylene] | -11.152 ± 0.302 kcal/mol | 2.31e+08 ± 1.3e+08 M⁻¹ | -13.988 ± 0.279 kcal/mol | −9.67 ± 1.98 cal/mol/deg | 5.29 ± 2.4 nM | ~1 nM | – | – | – | – | –
3 | COC(=O)[C@@H]1[C@H]2CC[C@@H](C[C@@H]1O)N2C [Ecgonine Methyl Ester, ecgonine methyl ester] | -6.381 ± 0.247 kcal/mol | 61375 ± 25024 M⁻¹ | -2.336 ± 0.452 kcal/mol | 13.80 ± 2.33 cal/mol/deg | 18700 ± 8310 nM | – | no EME binding to the Fc fragment | – | – | – | –
4 | COC(=O)[C@H]1[C@@H](OC(=O)c2ccccc2)C[C@@H]2CC[C@H]1N2C [Cocaine, cocaine] | -10.881 ± 0.187 kcal/mol | 1.33e+08 ± 4.54e+07 M⁻¹ | -15.41 ± 0.368 kcal/mol | −15.4 ± 1.8 cal/mol/deg | 8.13 ± 2.37 nM | ~4 nM | – | ≈ -15,400 cal/mol | ~8 nM | 2.5 nM | –
5 | CN1[C@H]2CC[C@@H]1[C@@H](C(=O)O)[C@@H](OC(=O)c1ccccc1)C2 [Benzoylecgonine, benzoylecgonine] | -9.755 ± 0.106 kcal/mol | 1.88e+07 ± 3.26e+06 M⁻¹ | -15.44 ± 0.833 kcal/mol | −19.4 ± 2.5 cal/mol/deg | 54.4 ± 8.77 nM | ~20 nM | – | – | – | – | ≈ -15,400 cal/mol
